Assays:
[1] = system: mice subjected to chronic unpredictable stress (CUS); assay: Chronic unpredictable stress (CUS) in mice, behavioral state (learned helplessness, social interaction, anhedonia); assay type: in vivo; settings: exogenous allopregnanolone treatment after 3 weeks CUS; FIGS. 3B-3D
Source text: In each graph, from left to right, the first bar is control, second bar is mice following CUS, and the third bar is mice following CUS and with exogenous allopregnanolone treatment.
Decreased expression of 5α-reductase 1 and 2 is associated with chronic stress, a major risk factor for depression. […] Reduced endogenous neurosteroids impaired the affective state.

[2] = system: women with PPD; settings: zuranolone treatment; cited from earlier work

SMILES | behavioral state of the mice following CUS (learned helplessness, social interaction, anhedonia) [1] | women with PPD exhibiting a rapid antidepressant response [2] [%]
CC(=O)[C@H]1CC[C@H]2[C@@H]3CC[C@H]4C[C@H](O)CC[C@]4(C)[C@H]3CC[C@]12C [allopregnanolone] | restored the behavioral state | –
C[C@@]1(O)CC[C@H]2[C@H](CC[C@@H]3[C@@H]2CC[C@]2(C)[C@@H](C(=O)Cn4cc(C#N)cn4)CC[C@@H]32)C1 [zuranolone] | – | 57
